Test results as given in EP3138569B1, “COMPOSITION FOR EXTERNAL APPLICATION” (priority 2014, dated 2015).
Read-outs that look alike come from different tables or passages of the source.

What was measured:
tyrosinase = target: T1, tyrosinase (Homo sapiens, UniProt P14679); settings: for Tyrosinase enzyme activity (µg melanin/µg protein/h): 0.5 mM L-DOPA, 37 °C, 2 hours, n=5; for tyrosinase-inhibiting effect: Student's t-test
T1 sequence (P14679 19-529): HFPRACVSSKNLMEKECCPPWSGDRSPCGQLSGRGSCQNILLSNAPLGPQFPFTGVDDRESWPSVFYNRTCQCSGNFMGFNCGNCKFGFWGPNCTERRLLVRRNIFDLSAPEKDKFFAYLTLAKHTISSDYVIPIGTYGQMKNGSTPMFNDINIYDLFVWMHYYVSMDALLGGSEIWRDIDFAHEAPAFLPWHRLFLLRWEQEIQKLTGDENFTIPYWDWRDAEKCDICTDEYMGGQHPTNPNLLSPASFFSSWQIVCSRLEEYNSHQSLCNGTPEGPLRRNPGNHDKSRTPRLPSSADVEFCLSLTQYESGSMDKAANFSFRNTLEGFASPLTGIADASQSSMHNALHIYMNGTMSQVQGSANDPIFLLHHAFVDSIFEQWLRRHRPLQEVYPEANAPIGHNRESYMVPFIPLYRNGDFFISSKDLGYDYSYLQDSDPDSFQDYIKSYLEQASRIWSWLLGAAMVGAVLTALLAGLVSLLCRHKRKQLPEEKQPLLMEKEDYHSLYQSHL

[1] = tested on: Normal human epidermal fibroblasts; assay: Evaluation of fibroblast-activating effect (MTT, blue formazan); format: cell-based; settings: for activity at 0.313 % / activity at 0.625 % / activity at 1.25 % / activity at 2.5 % / activity at 5 %: Homo sapiens, Fibroblast, 48 h, blue formazan relative to non-treated cells = 100, n=4, read-out: Index (%); for activity at 0.313 %: 0.313 w/v%; for activity at 0.625 %: 0.625 w/v%; for activity at 1.25 %: 1.250 w/v%; for activity at 2.5 %: 2.500 w/v%; for activity at 5 %: 5.000 w/v%; for fibroblast-activating effect: Student's t-test
Procedure: Normal human epidermal fibroblasts suspended in a DMEM medium containing a 5% calf serum (FBS) were inoculated in a 96-well plate at a density of 2.0 x 10^4 cells per well. After 24 hours of the inoculation, the medium was exchanged with a 1% calf serum (FBS) -containing DMEM medium (each test solution) which contained trehalulose, isomaltulose, or reduced isomaltulose at the concentrations shown in Table 1 (i.e., each six types of concentrations including 0.000 w/v %). […] Also, 5% FBS-containing DMEM media were used as positive controls (P.C.). After culturing for 48 hours, the medium was exchanged with a 1% FBS-containing DMEM medium which contained 0.4 mg/mL of 3-(4,5-dimethylthiazol-2-yl)-2,5-diphenyltetrazolium bromide (MTT) and cultured for 2 hours. The medium was removed, and when 2-propanol was added, blue formazan generated was extracted. Absorbance of the extract at 550 nm was measured to obtain the amount of blue formazan.

[2] = tested on: Normal human epidermal fibroblasts; assay: Evaluation of reducing effect of oxidative stress induced cell damage (UVB 20 mJ/cm^2, Neutral Red); format: cell-based
Procedure: (§1) When cells are irradiated with UVB, reactive oxygen species (such as a superoxide anion radical, hydrogen peroxide, and a hydroxyl radical) generate. The viability of cells obtained when the cells were irradiated with UVB was used as index to evaluate the reducing effect of the oxidative stress induced cell damage.
(§2) Normal human epidermal fibroblasts suspended in a KG2 medium were inoculated in a 96-well plate at a density of 2.0 x 10^4 cells per well. After 24 hours of the inoculation, the medium was exchanged with a KG2 medium (each test solution) which contained trehalulose or reduced isomaltulose at the concentrations shown in Table 2 (i.e., each six types of concentrations including 0.000 w/v %) and cultured for 24 hours. […] Also, groups that were not irradiated with UVB were provided as control groups. After culturing, the medium was exchanged with a KB2 medium containing 33 µg/mL of Neutral Red (NR) and was cultured for 2 hours. After culturing, the cells were washed with PBS, and NR captured within the cells was extracted with a 0.1M HCl solution containing 30% (v/v) ethanol. Absorbance of the extract at 550 nm was measured.

[3] = tested on: Normal human epidermal fibroblasts; assay: Evaluation of reducing effect of oxidative stress induced cell damage (UVB 25 mJ/cm^2, Neutral Red); format: cell-based
Procedure: as §1, §2
Except that the each test solution was changed to a KG2 medium which contained isomaltulose at the concentrations shown in Table 4 (i.e., six types of concentrations including 0.000 w/v %) and that the irradiation intensity of UVB was changed to 25 mJ/cm^2, the reducing effect of the oxidative stress induced cell damage was evaluated according to the same procedure as in Example 2.

Tyrosinase enzyme activity (µg melanin/µg protein/h) (tyrosinase; 0.094 w/v%) | Tyrosinase enzyme activity (µg melanin/µg protein/h) (tyrosinase; 0.188 w/v%) | Tyrosinase enzyme activity (µg melanin/µg protein/h) (tyrosinase; 0.375 w/v%) | Tyrosinase enzyme activity (µg melanin/µg protein/h) (tyrosinase; 0.750 w/v%) | Tyrosinase enzyme activity (µg melanin/µg protein/h) (tyrosinase; 1.500 w/v%) | Tyrosinase enzyme activity (µg melanin/µg protein/h) (tyrosinase; 3.000 w/v%) | tyrosinase-inhibiting effect (tyrosinase) | Structure (SMILES) | activity at 0.313 % [1] | activity at 0.625 % [1] | activity at 1.25 % [1] | activity at 2.5 % [1] | activity at 5 % [1] | fibroblast-activating effect [1] | further results
0.251 ± 0.034 µg melanin/µg protein/h | 0.251 ± 0.051 µg melanin/µg protein/h | 0.244 ± 0.044 µg melanin/µg protein/h | 0.232 ± 0.028 µg melanin/µg protein/h | 0.197 ± 0.004 µg melanin/µg protein/h | 0.188 ± 0.004 µg melanin/µg protein/h | significant tyrosinase-inhibiting effect | O=C(CO[C@H]1O[C@H](CO)[C@@H](O)[C@H](O)[C@H]1O)[C@@H](O)[C@H](O)[C@H](O)CO [Trehalulose, 1-O-α-D-glucopyranosyl-D-fructose] | 101 ± 2.4% | 104 ± 2.5% | 106.9 ± 0.8% | 112 ± 1.4% | 114 ± 5.8% | significant fibroblast-activating effect | viability at 0.125 % ([2]; Homo sapiens, Fibroblast, light or radiation study, 24 h, 0.125 w/v%, absorbance relative to UVB non-irradiated group = 100, n=4, read-out: Index (%)): 80.7 ± 2.7%; viability at 0.25 % ([2]; Homo sapiens, Fibroblast, light or radiation study, 24 h, 0.250 w/v%, absorbance relative to UVB non-irradiated group = 100, n=4, read-out: Index (%)): 82 ± 4.1%; viability at 0.5 % ([2]; Homo sapiens, Fibroblast, light or radiation study, 24 h, 0.500 w/v%, absorbance relative to UVB non-irradiated group = 100, n=4, read-out: Index (%)): 86.5 ± 1.3%; viability at 1 % ([2]; Homo sapiens, Fibroblast, light or radiation study, 24 h, 1.000 w/v%, absorbance relative to UVB non-irradiated group = 100, n=4, read-out: Index (%)): 93 ± 0.4%; viability at 2 % ([2]; Homo sapiens, Fibroblast, light or radiation study, 24 h, 2.000 w/v%, absorbance relative to UVB non-irradiated group = 100, n=4, read-out: Index (%)): 94.8 ± 1%; reducing effect of cell damage ([2]; Student's t-test): significant reducing effect of cell damage
0.205 ± 0.004 µg melanin/µg protein/h | 0.208 ± 0.003 µg melanin/µg protein/h | 0.200 ± 0.006 µg melanin/µg protein/h | 0.196 ± 0.004 µg melanin/µg protein/h | 0.190 ± 0.003 µg melanin/µg protein/h | 0.184 ± 0.004 µg melanin/µg protein/h | significant tyrosinase-inhibiting effect | O=C(CO)[C@@H](O)[C@H](O)[C@H](O)CO[C@H]1O[C@H](CO)[C@@H](O)[C@H](O)[C@H]1O [Isomaltulose, 6-O-α-D-glucopyranosyl-D-fructose] | 101 ± 2% | 107 ± 4.4% | 111 ± 2.3% | 113 ± 2.1% | 112% | significant fibroblast-activating effect | viability at 0.013 % ([3]; Homo sapiens, Fibroblast, light or radiation study, 24 h, 0.013 w/v%, absorbance relative to UVB non-irradiated group = 100, n=4, read-out: Index (%)): 80 ± 1.8%; viability at 0.025 % ([3]; Homo sapiens, Fibroblast, light or radiation study, 24 h, 0.025 w/v%, absorbance relative to UVB non-irradiated group = 100, n=4, read-out: Index (%)): 83.7 ± 3.5%; viability at 0.05 % ([3]; Homo sapiens, Fibroblast, light or radiation study, 24 h, 0.050 w/v%, absorbance relative to UVB non-irradiated group = 100, n=4, read-out: Index (%)): 84.3 ± 1.1%; viability at 0.1 % ([3]; Homo sapiens, Fibroblast, light or radiation study, 24 h, 0.100 w/v%, absorbance relative to UVB non-irradiated group = 100, n=4, read-out: Index (%)): 86.2 ± 2.5%; viability at 0.2 % ([3]; Homo sapiens, Fibroblast, light or radiation study, 24 h, 0.200 w/v%, absorbance relative to UVB non-irradiated group = 100, n=4, read-out: Index (%)): 86.8 ± 2.9%; reducing effect of cell damage ([3]; Student's t-test): significant reducing effect of cell damage
